In this assay the target is GDP-loaded KRAS G12D (Homo sapiens, UniProt P01116, G12D). The assay is described as follows: KRAS G12D Probe Displacement Assay. It is filed as binding. The settings on record: KRAS G12D 0.5 nM, biotinylated probe 2 4 nM; Table 6 letters; read-out: KRAS G12D Probe Displacement Assay IC50 (class).

This passage reports IC50 results from patent US20240140957A1, “BRIDGED COMPOUNDS AS KRAS G12D INHIBITOR AND DEGRADER AND THE USE THEREOF” (BeiGene Switzerland GmbH, priority 2021, published 2024).

Chain of GDP-loaded KRAS G12D (P01116 1-188 isoform P01116-2 G12D): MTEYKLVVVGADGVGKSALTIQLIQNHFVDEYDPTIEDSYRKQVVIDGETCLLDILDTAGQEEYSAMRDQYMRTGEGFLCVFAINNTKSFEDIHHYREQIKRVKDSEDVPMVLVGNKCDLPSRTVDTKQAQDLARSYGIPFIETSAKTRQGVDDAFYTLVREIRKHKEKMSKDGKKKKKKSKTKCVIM

As usually defined, the IC50 is the concentration needed to halve the response being measured. Turning to `Nc1nc2c(-c3cc4nc(OC[C@@]56CCCN5C[C@H](F)C6)nc(N5CC6CCC(C5)N6)c4cc3C(F)(F)F)ccc(F)c2s1` [Example E128, 4-(4-(3,8-diazabicyclo[3.2.1]octan-3-yl)-2-(((2R,7aS)-2-fluorotetra hydro-1H-pyrrolizin-7a(5H)-yl)methoxy)-6-(trifluoromethyl)quinazolin-7-yl)-7-fluorobenzo[d] thiazol-2-amine], the IC50 was below 50 nM. `Cc1cc(N)nc(-c2c(C3CC3)cc3c(N4CC5CCC(C4)N5)nc(OC[C@@]45CCCN4C[C@H](F)C5)nc3c2F)c1C(F)(F)F` [Example E129, 6-(4-(3,8-diazabicyclo[3.2.1]octan-3-yl)-6-cyclopropyl-8-fluoro-2-(((2R,7aS)-2-fluorotetrahydro-1H-pyrrolizin-7a(5H)-yl)methoxy)quinazolin-7-yl)-4-methyl-5-(trifluoromethyl)pyridin-2-amine]: the IC50 is below 50 nM.

For the compound `CC(F)(F)c1c(Cl)cc(N)nc1-c1c(Cl)cc2c(N3CC4CCC(C3)N4)nc(OC[C@@]34CCCN3C[C@H](F)C4)nc2c1F` [Example E130, 6-(4-(3,8-diazabicyclo[3.2.1]octan-3-yl)-6-chloro-8-fluoro-2-(((2R,7aS)-2-fluorotetrahydro-1H-pyrrolizin-7a(5H)-yl)methoxy)quinazolin-7-yl)-4-chloro-5-(1,1-difluoroethyl)pyridin-2-amine], the IC50 is below 50 nM.

As to `COCC1CCC2(COc3nc(N4CC5CCC(C4)N5)c4cc(C(F)(F)F)c(-c5ccc(F)c6sc(N)nc56)c(F)c4n3)CCCN12` (centres unmarked) [Example E131, 4-(4-(3,8-diazabicyclo[3.2.1]octan-3-yl)-8-fluoro-2-((3-(methoxymethyl)tetrahydro-1H-pyrrolizin-7a(5H)-yl)methoxy)-6-(trifluoromethyl)quinazolin-7-yl)-7-fluorobenzo[d]thiazol-2-amine], the concentration for half-maximal inhibition (IC50) was below 50 nM. Turning to `N#Cc1c(N)sc2c(F)ccc(-c3c(Cl)cc4c(N5CC6CCC(C5)N6)nc(OCC5(CN6CCC(F)C6)CCC5)nc4c3F)c12` (centres unmarked) [Example E132, 4-(4-(3,8-diazabicyclo[3.2.1]octan-3-yl)-6-chloro-8-fluoro-2-((1-((3-fluoropyrrolidin-1-yl)methyl)cyclobutyl)methoxy)quinazolin-7-yl)-2-amino-7-fluorobenzo [b]thiophene-3-carbonitrile], the IC50 is below 50 nM. Turning to `Cc1cc(N)nc(-c2c(Cl)cc3c(N4CC5CCC(C4)N5)nc(OCC45CCCN4C(CF)CC5)nc3c2F)c1C(F)(F)F` (centres unmarked) [Example E133, 6-(4-(3,8-diazabicyclo[3.2.1]octan-3-yl)-6-chloro-8-fluoro-2-((3-(fluoromethyl)tetrahydro-1H-pyrrolizin-7a(5H)-yl)methoxy)quinazolin-7-yl)-4-methyl-5-(trifluoromethyl)pyridin-2-amine], the IC50 was below 50 nM.

In the case of `COCC1CC2(COc3nc(N4CC5CCC(C4)N5)c4cc(C(F)(F)F)c(-c5ccc(F)c6sc(N)nc56)c(F)c4n3)CC(F)CN12` (centres unmarked) [Example E134, 4-(4-(3,8-diazabicyclo[3.2.1]octan-3-yl)-8-fluoro-2-((3-fluoro-7-(methoxymethyl)-1-azabicyclo[3.2.0]heptan-5-yl)methoxy)-6-(trifluoromethyl)quinazolin-7-yl)-7-fluorobenzo[d]thiazol-2-amine], the IC50 was below 50 nM. Under `Cn1nc(N)c(-c2cc3nc(OC[C@@]45CCCN4C[C@H](F)C5)nc(N4CC5CCC(C4)N5)c3cc2Cl)c1C1CC1` [Example E135, 4-(4-(3,8-diazabicyclo[3.2.1]octan-3-yl)-6-chloro-2-(((2R,7aS)-2-fluorotetrahydro-1H-pyrrolizin-7a(5H)-yl)methoxy)quinazolin-7-yl)-5-cyclopropyl-1-methyl-1H-pyrazol-3-amine] stands above 1000 nM.

`F[C@H]1CN2CCC[C@@]2(COc2nc(N3CC4CCC(C3)N4)c3cc(Cl)c(-n4ncc5cccc(Cl)c54)cc3n2)C1` [Example E136, 4-(3,8-diazabicyclo[3.2.1]octan-3-yl)-6-chloro-7-(7-chloro-1H-indazol-1-yl)-2-(((2R,7aS)-2-fluorotetrahydro-1H-pyrrolizin-7a(5H)-yl)methoxy)quinazoline]: the IC50 was above 1000 nM. Under `COC[C@@]1(COc2nc(N3C4CNCC3COC4)c3cc(F)c(-c4nc(N)cc(C)c4C(F)(F)F)c(F)c3n2)C[C@@H](F)CN1C` [Example E137, 6-(4-(3-oxa-7,9-diazabicyclo[3.3.1]nonan-9-yl)-6,8-difluoro-2-(((2R,4R)-4-fluoro-2-(methoxymethyl)-1-methylpyrrolidin-2-yl)methoxy)quinazolin-7-yl)-4-methyl-5-(trifluoromethyl)pyridin-2-amine] stands 100 to 1000 nM; under `COC1CN2CC(F)CC2(COc2nc(N3C4CNCC3COC4)c3cc(F)c(-c4nc(N)cc(C)c4C(F)(F)F)c(F)c3n2)C1` (centres unmarked) [Example E138, 6-(4-(3-oxa-7,9-diazabicyclo[3.3.1]nonan-9-yl)-6,8-difluoro-2-((2-fluoro-6-methoxytetrahydro-1H-pyrrolizin-7a(5H)-yl)methoxy)quinazolin-7-yl)-4-methyl-5-(trifluoromethyl)pyridin-2-amine], 100 to 1000 nM; under `Nc1nc2c(-c3c(C(F)(F)F)cc4c(N5C6CNCC5COC6)nc(OCC56CC(F)CN5CC(F)C6)nc4c3F)ccc(F)c2s1` (centres unmarked) [Example E139, 4-(4-(3-oxa-7,9-diazabicyclo[3.3.1]nonan-9-yl)-2-((2,6-difluorotetrahydro-1H-pyrrolizin-7a(5H)-yl)methoxy)-8-fluoro-6-(trifluoromethyl)quinazolin-7-yl)-7-fluorobenzo[d]thiazol-2-amine], below 50 nM.

Turning to `Nc1nc2c(-c3c(Cl)cc4c(N5CC6CCC(C5)N6)nc(OC[C@@]56CCCN5C[C@H](F)C6)nc4c3F)cc(Cl)cc2s1` [Example E140, 4-(4-(3,8-diazabicyclo[3.2.1]octan-3-yl)-6-chloro-8-fluoro-2-(((2R,7aS)-2-fluorotetrahydro-1H-pyrrolizin-7a(5H)-yl)methoxy)quinazolin-7-yl)-6-chlorobenzo [d]thiazol-2-amine], the IC50 was below 50 nM. Turning to `Nc1nc2c(-c3c(C(F)(F)F)cc4c(N5CC6CCC(C5)N6)nc(OCC(O)CO)nc4c3F)ccc(F)c2s1` (centres unmarked) [Example E141, 3-((7-(2-amino-7-fluorobenzo[d]thiazol-4-yl)-4-(3,8-diazabicyclo [3.2.1]octan-3-yl)-8-fluoro-6-(trifluoromethyl)quinazolin-2-yl)oxy)propane-1,2-diol], the concentration for half-maximal inhibition (IC50) is below 50 nM. In the case of `CC(CO)COc1nc(N2CC3CCC(C2)N3)c2cc(C(F)(F)F)c(-c3ccc(F)c4sc(N)nc34)c(F)c2n1` (centres unmarked) [Example E142, 3-((7-(2-amino-7-fluorobenzo[d]thiazol-4-yl)-4-(3,8-diazabicyclo [3.2.1]octan-3-yl)-8-fluoro-6-(trifluoromethyl)quinazolin-2-yl)oxy)-2-methylpropan-1-ol] it was below 50 nM; in that of `Nc1nc2c(-c3c(C(F)(F)F)cc4c(N5CC6CCC(C5)N6)nc(OC5CCOC5)nc4c3F)ccc(F)c2s1` (centres unmarked) [Example E143], below 50 nM; in that of `Nc1nc2c(-c3c(C(F)(F)F)cc4c(N5CC6CCC(C5)N6)nc(OCC5CCOCC5)nc4c3F)ccc(F)c2s1` [Example E144, 4-(4-(3,8-diazabicyclo[3.2.1]octan-3-yl)-8-fluoro-2-((tetrahydro-2H-pyran-4-yl)methoxy)-6-(trifluoromethyl)quinazolin-7-yl)-7-fluorobenzo[d]thiazol-2-amine], below 50 nM.

In the case of `Nc1nc2c(-c3c(C(F)(F)F)cc4c(N5CC6CCC(C5)N6)nc(OCC5CCOC5)nc4c3F)ccc(F)c2s1` (centres unmarked) [Example E145, 4-(4-(3,8-diazabicyclo[3.2.1]octan-3-yl)-8-fluoro-2-((tetrahydrofuran-3-yl)methoxy)-6-(trifluoromethyl)quinazolin-7-yl)-7-fluorobenzo [d]thiazol-2-amine], the IC50 is below 50 nM. With `Nc1nc2c(-c3c(C(F)(F)F)cc4c(N5CC6CCC(C5)N6)nc(OCC5CCCCO5)nc4c3F)ccc(F)c2s1` (centres unmarked) [Example E146, 4-(4-(3,8-diazabicyclo[3.2.1]octan-3-yl)-8-fluoro-2-((tetrahydro-2H-pyran-2-yl)methoxy)-6-(trifluoromethyl)quinazolin-7-yl)-7-fluorobenzo[d]thiazol-2-amine], the concentration for half-maximal inhibition (IC50) was below 50 nM.

Take `N#CC1(COc2nc(N3CC4CCC(C3)N4)c3cc(C(F)(F)F)c(-c4ccc(F)c5sc(N)nc45)c(F)c3n2)CC1` [Example E147, 1-(((7-(2-amino-7-fluorobenzo[d]thiazol-4-yl)-4-(3,8-diazabicyclo [3.2.1]octan-3-yl)-8-fluoro-6-(trifluoromethyl)quinazolin-2-yl)oxy)methyl)cyclopropane-1-carbonitrile]: the IC50 was below 50 nM. With `Nc1nc2c(-c3c(C(F)(F)F)cc4c(N5CC6CCC(C5)N6)nc(OC5CS(=O)(=O)C5)nc4c3F)ccc(F)c2s1` [Example E148, 3-((7-(2-amino-7-fluorobenzo[d]thiazol-4-yl)-4-(3,8-diazabicyclo [3.2.1]octan-3-yl)-8-fluoro-6-(trifluoromethyl)quinazolin-2-yl)oxy)thietane 1,1-dioxide], the IC50 was below 50 nM. In the case of `Nc1nc2c(-c3c(C(F)(F)F)cc4c(N5CC6CCC(C5)N6)nc(OCC5(CO)CC5)nc4c3F)ccc(F)c2s1` [Example E149, (1-(((7-(2-amino-7-fluorobenzo[d]thiazol-4-yl)-4-(3,8-diazabicyclo[3.2.1]octan-3-yl)-8-fluoro-6-(trifluoromethyl)quinazolin-2-yl)oxy)methyl)cyclopropyl) methanol] it was below 50 nM. In the case of `COC1CC(COc2nc(N3CC4CCC(C3)N4)c3cc(C(F)(F)F)c(-c4ccc(F)c5sc(N)nc45)c(F)c3n2)C1` (centres unmarked) [Example E150, 4-(4-(3,8-diazabicyclo[3.2.1]octan-3-yl)-8-fluoro-2-((3-methoxycyclobutyl)methoxy)-6-(trifluoromethyl)quinazolin-7-yl)-7-fluorobenzo[d]thiazol-2-amine] it was below 50 nM.
